Entries after “also recorded” stand apart in the source; their conditions may differ.
Tests used:
TRPC5 channel = target: T1, TRPC5 channel (Homo sapiens, UniProt Q9UL62); assay: Assay A: Determination of TRPC5-inhibition (whole-cell patch clamp); type: cell-based; settings: LaCl3-activated current
T1 construct: expressed in transfected cells; host or cells: HEK293 TREx (inducible expression)
T1 sequence (Q9UL62 1-973): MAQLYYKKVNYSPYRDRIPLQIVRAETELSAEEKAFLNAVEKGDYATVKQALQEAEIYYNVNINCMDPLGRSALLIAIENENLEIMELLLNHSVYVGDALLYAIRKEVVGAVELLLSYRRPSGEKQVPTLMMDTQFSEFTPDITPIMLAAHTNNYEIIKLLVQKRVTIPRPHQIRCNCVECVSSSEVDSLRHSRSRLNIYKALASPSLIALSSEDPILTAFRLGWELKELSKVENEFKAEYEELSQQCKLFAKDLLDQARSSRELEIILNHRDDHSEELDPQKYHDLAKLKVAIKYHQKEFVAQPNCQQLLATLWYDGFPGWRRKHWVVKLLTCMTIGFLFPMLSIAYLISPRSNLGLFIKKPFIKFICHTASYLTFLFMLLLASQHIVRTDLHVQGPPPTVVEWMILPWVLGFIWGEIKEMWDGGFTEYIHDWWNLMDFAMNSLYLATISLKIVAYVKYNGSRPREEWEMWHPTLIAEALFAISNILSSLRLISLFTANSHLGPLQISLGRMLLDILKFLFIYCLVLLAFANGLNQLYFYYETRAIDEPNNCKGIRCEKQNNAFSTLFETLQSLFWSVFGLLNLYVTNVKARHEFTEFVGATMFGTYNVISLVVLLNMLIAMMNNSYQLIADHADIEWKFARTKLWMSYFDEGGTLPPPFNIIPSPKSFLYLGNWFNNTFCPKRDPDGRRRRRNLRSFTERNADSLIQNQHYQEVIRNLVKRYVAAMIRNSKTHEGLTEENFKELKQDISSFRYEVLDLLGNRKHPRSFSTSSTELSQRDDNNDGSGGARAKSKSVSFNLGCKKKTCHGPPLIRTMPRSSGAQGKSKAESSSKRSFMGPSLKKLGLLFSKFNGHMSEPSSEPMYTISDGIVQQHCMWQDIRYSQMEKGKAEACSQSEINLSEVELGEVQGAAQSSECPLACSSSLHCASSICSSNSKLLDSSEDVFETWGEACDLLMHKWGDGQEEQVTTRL
Source text: Assay A: Determination of TRPC5-Inhibition
Patch clamp experiments permit the detection of currents through the TRPC5 channel in a cell line. In normal whole-cell patch clamp recordings, a glass electrode is brought into contact with a single cell and a high-resistance (gigaohm) seal is established with the cell membrane. The membrane is then ruptured to achieve the whole-cell configuration, permitting control of the voltage of the cell membrane and measurement of currents flowing across the membrane using the amplifier attached to the electrode and resulting in the replacement of cytoplasm with the pipette solution. A perfusion system permits control of the extracellular solution, including the addition of blockers and activators of the current. The current can be activated by including 1.4 μM free Ca2+ in the pipette (intracellular) solution, and 80 μM LaCl3 in the extracellular solution.
TRPC5 cells were induced 20-48 hours, removed from growth plates, and replated at low density (to attain good single-cell physical separation) on glass coverslips for measurement. In some cases, cells were grown in low density overnight on glass coverslips. Patch clamp recordings were made in the whole-cell mode with a holding potential of −40 mV. Every 5 seconds, a voltage ramp was applied from −120 to +100 mV, 400 ms in duration. Currents elicited were quantified at −80 mV and +80 mV. The internal solution consisted of 140 mM cesium aspartate, 10 mM HEDTA, 2 mM CaCl2, 2.27 mM MgCl2 and 10 mM HEPES, pH 7.2, with 1,400 nM calculated free Ca2+. The external solution consisted of 150 mM NaCl, 4.5 mM 15 KCl, 1 mM MgCl2, 2 mM CaCl2, 10 mM HEPES, 10 mM glucose, 1 mM EGTA, pH 7.4. Upon addition of LaCl3, TRPC5 current was induced only in TRPC5-expressing cells and not in parental HEK293 TREx cells. Removal of the LaCh stimulus causes most of the current to go away. Potential blockers were tested for ability to block both inward and outward currents in the continued presence of LaCl3.
IC50 of a compound of the invention was estimated by testing the compound 500 nM. […] Compounds blocking 50% or more at 500 nM are retested at multiple concentrations, and the % block is fitted by standard equations to determine IC50 accurately, using a ⅚ point concentration-response experiment.

hERG channel = target: T2, hERG channel (Homo sapiens, UniProt Q12809); assay: Assay B: Determination of hERG-inhibition (patch-clamp); type: cell-based; settings: patch-clamp per Rast and Guth 2014
T2 construct: expressed in transfected cells
Protocol: Assay B: Determination of hERG-Inhibition
hERG-channel inhibition was determined as described in Rast G, Guth B D, Solubility assessment and on-line exposure confirmation in a patch-clamp assay for hERG (human ether-a-go-go-related gene) potassium channel inhibition, J Pharmacol Toxicol Methods. 2014 September-October; 70(2):182-7.

[1] = compounds of the present invention, TRPC5-expressing HEK293 TREx cells
[2] = compounds of the present invention
[3] = compounds of WO2014/143799, TRPC5-expressing HEK293 TREx cells

T2 sequence (Q12809 whole entry): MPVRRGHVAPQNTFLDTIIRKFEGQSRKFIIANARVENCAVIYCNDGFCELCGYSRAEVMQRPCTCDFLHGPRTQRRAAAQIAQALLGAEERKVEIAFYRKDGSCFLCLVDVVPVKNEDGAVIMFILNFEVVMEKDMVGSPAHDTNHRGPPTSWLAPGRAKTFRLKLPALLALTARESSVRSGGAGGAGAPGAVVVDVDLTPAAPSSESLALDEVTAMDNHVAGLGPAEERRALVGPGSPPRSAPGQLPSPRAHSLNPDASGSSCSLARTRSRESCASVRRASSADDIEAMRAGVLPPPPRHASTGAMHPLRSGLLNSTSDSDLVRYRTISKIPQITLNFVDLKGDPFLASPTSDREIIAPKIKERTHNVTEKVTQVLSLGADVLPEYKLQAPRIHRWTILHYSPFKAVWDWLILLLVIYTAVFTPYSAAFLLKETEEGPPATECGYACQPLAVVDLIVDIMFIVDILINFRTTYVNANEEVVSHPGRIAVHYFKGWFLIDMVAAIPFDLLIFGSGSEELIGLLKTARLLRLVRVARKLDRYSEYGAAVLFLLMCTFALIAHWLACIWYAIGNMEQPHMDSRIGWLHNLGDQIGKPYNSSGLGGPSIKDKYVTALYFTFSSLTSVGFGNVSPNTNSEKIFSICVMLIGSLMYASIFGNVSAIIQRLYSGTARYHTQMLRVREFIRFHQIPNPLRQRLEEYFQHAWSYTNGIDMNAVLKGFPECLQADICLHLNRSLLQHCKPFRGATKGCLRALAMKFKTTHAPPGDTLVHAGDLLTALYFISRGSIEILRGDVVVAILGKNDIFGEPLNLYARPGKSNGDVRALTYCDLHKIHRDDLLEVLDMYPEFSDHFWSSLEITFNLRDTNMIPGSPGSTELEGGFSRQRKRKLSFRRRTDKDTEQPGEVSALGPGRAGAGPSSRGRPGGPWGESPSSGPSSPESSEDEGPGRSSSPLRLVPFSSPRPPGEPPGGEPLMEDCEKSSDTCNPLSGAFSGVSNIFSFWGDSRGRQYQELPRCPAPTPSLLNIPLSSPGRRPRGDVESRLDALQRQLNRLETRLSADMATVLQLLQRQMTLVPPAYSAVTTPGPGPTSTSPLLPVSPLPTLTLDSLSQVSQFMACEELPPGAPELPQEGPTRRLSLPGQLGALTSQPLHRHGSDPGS

Row | SMILES | IC50 (TRPC5 channel; [1]) [µM] | IC50 (hERG channel; [2]) [µM] | further results
1 | CC(C)n1c(=O)n(CCCO)c(=O)c2c1nc(-c1cccnc1OC[C@H]1CC1(F)F)n2Cc1ccc(F)cc1 (single isomer, unassigned) [Example 21] | < 0.01 | > 10 | –
2 | CC(C)n1c(=O)n(CCCO)c(=O)c2c1nc(-c1cccnc1OC[C@@H]1CC1(F)F)n2Cc1ccc(F)cc1 (single isomer, unassigned) [Example 22] | < 0.01 | > 10 | –
3 | Cn1c(=O)n(CCCO)c(=O)c2c1nc(Oc1cccc(Cl)c1)n2Cc1cccc(Cl)c1 [Compound ID 260 in WO2014/143799, reference compound] | – | – | Assay A TRPC5 inhibition (TRPC5 channel; [3]): potent TRPC5-inhibition; IC50 (TRPC5 channel; [3]): < 0.01 µM; Assay B hERG inhibition (hERG channel; compounds of WO2014/143799): low μM range; IC50 (hERG channel; compounds of WO2014/143799): 1.9 µM
4 | COc1ccccc1-c1nc2c(c(=O)n(CCCO)c(=O)n2C)n1Cc1ccc(F)cc1 [Compound ID 415 in WO2014/143799, reference compound] | – | – | Assay A TRPC5 inhibition (TRPC5 channel; [3]): agonism (activation); also recorded: Agonist; IC50 (hERG channel; compounds of WO2014/143799): > 10 µM
5 | CC(C)n1c(=O)n(CCCO)c(=O)c2c1nc(-c1cccnc1OCC1CC1)n2Cc1cc(F)cc(F)c1 [Example 1] | < 0.01 | > 10 | –
6 | CC(C)n1c(=O)n(CCCO)c(=O)c2c1nc(-c1cccnc1OCC1CC1)n2Cc1ccc(C(F)(F)F)cc1 [Example 2] | < 0.01 | 8.3 | –
7 | CC(C)n1c(=O)n(CCCO)c(=O)c2c1nc(-c1cccnc1OCC1CC1)n2Cc1ccc(F)c(F)c1 [Example 3] | < 0.01 | > 10 | –
8 | Cc1ccc(Cn2c(-c3cccnc3OCC3CC3)nc3c2c(=O)n(CCCO)c(=O)n3C(C)C)cc1 [Example 4] | < 0.01 | > 10 | –
9 | CC(C)n1c(=O)n(CCCO)c(=O)c2c1nc(-c1cccnc1OCC1CC1)n2Cc1ccc(Cl)cc1 [Example 5] | < 0.01 | > 10 | –
10 | CC(C)n1c(=O)n(CCCO)c(=O)c2c1nc(-c1cccnc1OCC1CC1)n2Cc1ccc(F)cc1 [Example 6] | < 0.01 | > 10 | –
11 | CC(C)n1c(=O)n(CCCO)c(=O)c2c1nc(-c1ccc(F)nc1OCC1CC1)n2Cc1ccc(F)cc1 [Example 7] | < 0.01 | > 10 | –
12 | CC(C)n1c(=O)n(CCCO)c(=O)c2c1nc(-c1cccnc1OCC1CC1)n2Cc1ccc(Cl)cn1 [Example 8] | < 0.01 | > 10 | –
13 | CC(C)n1c(=O)n(CCCO)c(=O)c2c1nc(-c1nccnc1OCC1CC1)n2Cc1ccccc1 [Example 9] | < 0.01 | > 10 | –
14 | CC(C)n1c(=O)n(CCCO)c(=O)c2c1nc(-c1ccc(F)nc1OCC1CC1)n2Cc1ccccc1 [Example 10] | < 0.01 | > 10 | –
15 | CCn1c(=O)n(CCCO)c(=O)c2c1nc(-c1nccnc1OCC1CC1)n2Cc1ccccc1 [Example 11] | < 0.01 | > 10 | –
16 | Cn1c(=O)n(CCCO)c(=O)c2c1nc(-c1nccnc1OCC1CC1)n2Cc1ccc(Cl)cc1 [Example 12] | < 0.01 | > 10 | –
17 | Cc1ccc(-c2nc3c(c(=O)n(CCCO)c(=O)n3C(C)C)n2Cc2ccccc2)c(OCC2CC2)n1 [Example 13] | < 0.01 | > 10 | –
18 | Cc1nc(OCC2CC2)c(-c2nc3c(c(=O)n(CCCO)c(=O)n3C(C)C)n2Cc2ccc(F)cc2)cc1F [Example 14] | < 0.01 | 5.8 | –
19 | Cc1nc(OCC2CC2)c(-c2nc3c(c(=O)n(CCCO)c(=O)n3C(C)C)n2Cc2ccccc2)cc1F [Example 15] | < 0.01 | 5.8 | –
20 | CC(C)n1c(=O)n(CCCO)c(=O)c2c1nc(-c1cc(F)cnc1OCC1CC1)n2Cc1ccccc1 [Example 16] | < 0.01 | > 10 | –
21 | CC(C)n1c(=O)n(CCCO)c(=O)c2c1nc(-c1cc(F)cnc1OCC1CC1)n2Cc1ccc(F)cc1 [Example 17] | < 0.01 | > 10 | –
22 | CC(C)n1c(=O)n(CCCO)c(=O)c2c1nc(-c1cccnc1OCC1CC1)n2Cc1ccccc1 [Example 18] | < 0.01 | > 10 | –
23 | CC(C)n1c(=O)n(CCCO)c(=O)c2c1nc(-c1cccnc1OC[C@@H]1CC1(F)F)n2Cc1ccccc1 [Example 19] | < 0.01 | > 10 | –
24 | CC(C)n1c(=O)n(CCCO)c(=O)c2c1nc(-c1cccnc1OC[C@H]1CC1(F)F)n2Cc1ccccc1 [Example 20] | < 0.01 | > 10 | –
25 | CC(C)n1c(=O)n(CC[C@@H](C)O)c(=O)c2c1nc(-c1cccnc1OCC1CC1)n2Cc1ccccc1 [Example 23] | < 0.01 | > 10 | –
26 | CC(C)n1c(=O)n(CC[C@@H](C)O)c(=O)c2c1nc(-c1cccnc1OCC1CC1)n2Cc1ccc(F)cc1 [Example 24] | < 0.01 | > 10 | –
27 | CC(C)n1c(=O)n(CC[C@@H](C)O)c(=O)c2c1nc(-c1cccnc1OCC1CC1)n2Cc1ccc(Cl)cc1 [Example 25] | < 0.01 | 7.6 | –
